Reference: patent publication US12077503B2, “Substituted cyclic amides and their use as herbicides” (FMC CORPORATION, priority 2015, dated 2024)

How the values were obtained:
Type in all cases: in vivo
[1] = tested on: barnyardgrass (Echinochloa crus-galli); test: Test G Pre-Emergence Protocol; settings: evaluated after 13 days; for plant damage rating, Barnyardgrass / Barnyardgrass damage rating: 62.5 g ai/ha, 100=total damage to plant, 0=no damage to plant
Experimental: (§1) Seeds of corn (Zea mays), giant foxtail (Setaria faberi), barnyardgrass (Echinochloa crus-galli), ivy-leaved morning glory (Ipomoea hederacea), redroot pigweed (Amaranthus retroflexus) and velvetleaf (Abutilon theophrasti) were sown in standard soil in pots. After cultivation for one day under controlled conditions in a glasshouse (at 24/16° C., day/night; 14 hours light; 65% humidity), the plants were sprayed with an aqueous spray solution derived from the formulation of the technical active ingredient in acetone/water (50:50) solution containing 0.5% Tween 20 (polyoxyethylene sorbitan monolaurate, CAS RN 9005-64-5) to give a final dose of 15.625, 62.5 or 250 g/ha of test compound.
(§2) The test plants were then grown on under controlled conditions in a glasshouse (at 24/16° C., day/night; 14 hours light; 65% humidity) and watered twice daily. After 13 days the test was evaluated (100=total damage to plant; 0=no damage to plant). A dash (-) means no test result.

corn (Zea mays) [2] = test: Test G Pre-Emergence Protocol; settings: evaluated after 13 days; for plant damage rating, Corn / Corn damage rating: 62.5 g ai/ha, 100=total damage to plant, 0=no damage to plant
Experimental: as §1, §2

[3] = tested on: giant foxtail (Setaria faberi); test: Test G Pre-Emergence Protocol; settings: evaluated after 13 days; for plant damage rating, Foxtail, Giant / Foxtail, Giant damage rating: 62.5 g ai/ha, 100=total damage to plant, 0=no damage to plant
Experimental: as §1, §2

[4] = tested on: ivy-leaved morning glory (Ipomoea hederacea); test: Test G Pre-Emergence Protocol; settings: evaluated after 13 days; for plant damage rating, Morningglory, Ivy-leaved / Morningglory, Ivy-leaved damage rating: 62.5 g ai/ha, 100=total damage to plant, 0=no damage to plant
Experimental: as §1, §2

[5] = tested on: redroot pigweed (Amaranthus retroflexus); test: Test G Pre-Emergence Protocol; settings: evaluated after 13 days; for plant damage rating, Pigweed, Redroot / Pigweed, Redroot damage rating: 62.5 g ai/ha, 100=total damage to plant, 0=no damage to plant
Experimental: as §1, §2

[6] = tested on: velvetleaf (Abutilon theophrasti); test: Test G Pre-Emergence Protocol; settings: evaluated after 13 days; for plant damage rating, Velvetleaf / Velvetleaf damage rating: 62.5 g ai/ha, 100=total damage to plant, 0=no damage to plant
Experimental: as §1, §2

[7] = tested on: barnyardgrass (Echinochloa crus-galli); test: Test G Post-Emergence Protocol
Experimental: as §1, with “8 days” for “one day”
as §2

corn (Zea mays) [8] = test: Test G Post-Emergence Protocol
Experimental: as §1, with “8 days” for “one day”
as §2

[9] = tested on: giant foxtail (Setaria faberi); test: Test G Post-Emergence Protocol
Experimental: as §1, with “8 days” for “one day”
as §2

[10] = tested on: ivy-leaved morning glory (Ipomoea hederacea); test: Test G Post-Emergence Protocol
Experimental: as §1, with “8 days” for “one day”
as §2

[11] = tested on: redroot pigweed (Amaranthus retroflexus); test: Test G Post-Emergence Protocol
Experimental: as §1, with “8 days” for “one day”
as §2

[12] = tested on: velvetleaf (Abutilon theophrasti); test: Test G Post-Emergence Protocol
Experimental: as §1, with “8 days” for “one day”
as §2

[13] = 15.625 g ai/ha, evaluated after 13 days (100=total damage to plant; 0=no damage to plant)
[14] = 62.5 g ai/ha, evaluated after 13 days
[15] = 250 g ai/ha, evaluated after 13 days
[16] = 62.5 g ai/ha, evaluated after 13 days, 100=total damage to plant, 0=no damage to plant
[17] = 250 g ai/ha, evaluated after 13 days, 100=total damage to plant, 0=no damage to plant

| Compound | Barnyardgrass damage rating (100=total damage to plant; 0=no damage to plant) ([1]; 15.625 g ai/ha) | plant damage rating, Barnyardgrass [1] | Barnyardgrass damage rating (100=total damage to plant; 0=no damage to plant) ([1]; 250 g ai/ha) | Corn damage rating (100=total damage to plant; 0=no damage to plant) (corn (Zea mays) [2]; 15.625 g ai/ha) | plant damage rating, Corn (corn (Zea mays) [2]) | Corn damage rating (100=total damage to plant; 0=no damage to plant) (corn (Zea mays) [2]; 250 g ai/ha) | Foxtail, Giant damage rating (100=total damage to plant; 0=no damage to plant) ([3]; 15.625 g ai/ha) | plant damage rating, Foxtail, Giant [3] | Foxtail, Giant damage rating (100=total damage to plant; 0=no damage to plant) ([3]; 250 g ai/ha) | Morningglory, Ivy-leaved damage rating (100=total damage to plant; 0=no damage to plant) ([4]; 250 g ai/ha) | Pigweed, Redroot damage rating (100=total damage to plant; 0=no damage to plant) ([5]; 15.625 g ai/ha) | Pigweed, Redroot damage rating (100=total damage to plant; 0=no damage to plant) ([5]; 250 g ai/ha) | Velvetleaf damage rating (100=total damage to plant; 0=no damage to plant) ([6]; 15.625 g ai/ha) | Velvetleaf damage rating (100=total damage to plant; 0=no damage to plant) ([6]; 250 g ai/ha) | Barnyardgrass damage rating [7, 13] | Corn damage rating (corn (Zea mays) [8]; [13]) | Foxtail, Giant damage rating [9, 13] | Morningglory, Ivy-leaved damage rating [10, 13] | Pigweed, Redroot damage rating [11, 13] | Velvetleaf damage rating [12, 13] | also measured |
| --- | --- | --- | --- | --- | --- | --- | --- | --- | --- | --- | --- | --- | --- | --- | --- | --- | --- | --- | --- | --- | --- |
| CN1CC(c2ccc(C(F)(F)F)cc2)C(C(=O)Nc2[nH]cnc2[N+](=O)[O-])C1=O (racemic) [Compound 1507] | 0 | 0 | 0 | 0 | 0 | 0 | 0 | 0 | 0 | 0 | 0 | 0 | 0 | 0 | 0 | 0 | 0 | 0 | 0 | 0 | Morning-glory, Ivy-leaved damage rating (100=total damage to plant; 0=no damage to plant) ([4]; 15.625 g ai/ha): 0; plant damage rating, Morningglory, Ivy-leaved [4]: 0; plant damage rating, Pigweed, Redroot [5]: 0; plant damage rating, Velvetleaf [6]: 0; Barnyardgrass damage rating (100=total damage to plant; 0=no damage to plant) [7, 14]: 0; damage to plant, Barnyardgrass (100=total damage to plant; 0=no damage to plant) [7, 15]: 0; Corn damage rating (100=total damage to plant; 0=no damage to plant) (corn (Zea mays) [8]; [14]): 0; damage to plant, Corn (100=total damage to plant; 0=no damage to plant) (corn (Zea mays) [8]; [15]): 0; Foxtail, Giant damage rating (100=total damage to plant; 0=no damage to plant) [9, 14]: 0; damage to plant, Foxtail, Giant (100=total damage to plant; 0=no damage to plant) [9, 15]: 0; Morningglory, Ivy-leaved damage rating (100=total damage to plant; 0=no damage to plant) [10, 14]: 0; damage to plant, Morningglory, Ivy-leaved (100=total damage to plant; 0=no damage to plant) [10, 15]: 0; Pigweed, Redroot damage rating (100=total damage to plant; 0=no damage to plant) [11, 14]: 0; damage to plant, Pigweed, Redroot (100=total damage to plant; 0=no damage to plant) [11, 15]: 0; Velvetleaf damage rating (100=total damage to plant; 0=no damage to plant) [12, 14]: 0; damage to plant, Velvetleaf (100=total damage to plant; 0=no damage to plant) [12, 15]: 0 |
| Cc1ccc(NC(=O)C2C(=O)N(C)CC2c2ccc(C(F)(F)F)cc2)c([N+](=O)[O-])c1 (racemic) [Compound 1592] | 0 | 10 | 50 | 0 | 0 | 0 | 0 | 20 | 70 | 10 | 0 | 30 | 0 | 0 | 0 | 0 | 0 | 0 | 0 | 0 | Morning-glory, Ivy-leaved damage rating (100=total damage to plant; 0=no damage to plant) ([4]; 15.625 g ai/ha): 10; plant damage rating, Morningglory, Ivy-leaved [4]: 0; plant damage rating, Pigweed, Redroot [5]: 0; plant damage rating, Velvetleaf [6]: 0; Barnyardgrass damage rating (100=total damage to plant; 0=no damage to plant) [7, 14]: 10; damage to plant, Barnyardgrass (100=total damage to plant; 0=no damage to plant) [7, 15]: 30; Corn damage rating (100=total damage to plant; 0=no damage to plant) (corn (Zea mays) [8]; [14]): 0; damage to plant, Corn (100=total damage to plant; 0=no damage to plant) (corn (Zea mays) [8]; [15]): 10; Foxtail, Giant damage rating (100=total damage to plant; 0=no damage to plant) [9, 14]: 60; damage to plant, Foxtail, Giant (100=total damage to plant; 0=no damage to plant) [9, 15]: 70; Morningglory, Ivy-leaved damage rating (100=total damage to plant; 0=no damage to plant) [10, 14]: 40; damage to plant, Morningglory, Ivy-leaved (100=total damage to plant; 0=no damage to plant) [10, 15]: 60; Pigweed, Redroot damage rating (100=total damage to plant; 0=no damage to plant) [11, 14]: 0; damage to plant, Pigweed, Redroot (100=total damage to plant; 0=no damage to plant) [11, 15]: 10; Velvetleaf damage rating (100=total damage to plant; 0=no damage to plant) [12, 14]: 10; damage to plant, Velvetleaf (100=total damage to plant; 0=no damage to plant) [12, 15]: 10 |
| CN1C[C@H](c2ccc(C(F)(F)F)cc2)[C@@H](C(=O)Nc2c[n+]([O-])ccc2C(F)(F)F)C1=O (racemic) [Compound 1732] | 0 | – | 0 | 0 | – | 0 | 0 | – | 50 | 0 | 0 | 10 | 0 | 10 | 0 | 0 | 0 | 0 | 0 | 0 | Barnyardgrass damage rating [1]: 0; Corn damage rating (corn (Zea mays) [2]): 0; Foxtail, Giant damage rating [3]: 20; Morningglory, Ivy-leaved damage rating (100=total damage to plant; 0=no damage to plant) ([4]; 15.625 g ai/ha): 0; Morningglory, Ivy-leaved damage rating [4]: 0; Pigweed, Redroot damage rating [5]: 0; Velvetleaf damage rating [6]: 0; Barnyardgrass damage rating [7, 16]: 0; Barnyardgrass damage rating [7, 17]: 20; Corn damage rating (corn (Zea mays) [8]; [16]): 0; Corn damage rating (corn (Zea mays) [8]; [17]): 0; Foxtail, Giant damage rating [9, 16]: 10; Foxtail, Giant damage rating [9, 17]: 50; Morningglory, Ivy-leaved damage rating [10, 16]: 0; Morningglory, Ivy-leaved damage rating [10, 17]: 0; Pigweed, Redroot damage rating [11, 16]: 10; Pigweed, Redroot damage rating [11, 17]: 20; Velvetleaf damage rating [12, 16]: 10; Velvetleaf damage rating [12, 17]: 0 |
| CN1C[C@@H](c2ccc(C(F)(F)F)cc2)[C@H](C(=O)Nc2cccnc2F)C1=O [Compound 1768] | 0 | – | 0 | 0 | – | 0 | 0 | – | 0 | 0 | 0 | 0 | 0 | 0 | 0 | 0 | 0 | 0 | 0 | 0 | Barnyardgrass damage rating [1]: 0; Corn damage rating (corn (Zea mays) [2]): 0; Foxtail, Giant damage rating [3]: 0; Morningglory, Ivy-leaved damage rating (100=total damage to plant; 0=no damage to plant) ([4]; 15.625 g ai/ha): 0; Morningglory, Ivy-leaved damage rating [4]: 0; Pigweed, Redroot damage rating [5]: 0; Velvetleaf damage rating [6]: 0; Barnyardgrass damage rating [7, 16]: 0; Barnyardgrass damage rating [7, 17]: 0; Corn damage rating (corn (Zea mays) [8]; [16]): 0; Corn damage rating (corn (Zea mays) [8]; [17]): 0; Foxtail, Giant damage rating [9, 16]: 0; Foxtail, Giant damage rating [9, 17]: 0; Morningglory, Ivy-leaved damage rating [10, 16]: 0; Morningglory, Ivy-leaved damage rating [10, 17]: 0; Pigweed, Redroot damage rating [11, 16]: 0; Pigweed, Redroot damage rating [11, 17]: 0; Velvetleaf damage rating [12, 16]: 0; Velvetleaf damage rating [12, 17]: 0 |
